Measured values reported in PMC6299220 (mBio, 2018).
Values after ≈ are worked out from the molar mass of the structure shown. Values joined by “and” are separate entries in the source; they are usually repeats but may differ in a detail not shown here. Equal values may be shown once. Read-outs that look alike come from different tables or passages of the source.

Assays:
[1] = in vivo; conditions: female, BALB/c
Experimental: All animal experiments were approved by the Institutional Animal Care and Use Committee of the New Jersey Medical School, Rutgers University, and were conducted in compliance with their guidelines. […] Sequential bleeds were collected at 0.25, 0.5, 1, 3, 5, and 8 h postdose via the tail snip method. Blood (50 µl) was collected in capillary microvette EDTA blood tubes and kept on ice prior to centrifugation at 1,500 × g for 5 min. The supernatant (plasma) was transferred into a 96-well plate and stored at −80°C.
Chromatography was performed with an Agilent Zorbax SB-C8 column (2.1 by 30 mm; particle size, 3.5 µm) using a reverse-phase gradient elution. A mixture of 0.1% formic acid–Milli-Q deionized water was used for the aqueous mobile phase and 0.1% formic acid–acetonitrile (ACN) for the organic mobile phase. […] Extracts were subjected to vortex mixing for 5 min and centrifuged at 4,000 rpm for 5 min. The supernatants were analyzed by LC-MS. Verapamil IS was sourced from Sigma-Aldrich.

[2] = in vitro; format: in vitro ADME; conditions: for fraction unbound: plasma
Excerpt: (§1) Supplement mbo006184230st8.docx, table 1: Table S3. Profile of DG167 | column: value

[3] = molecular target: CYP2D6 (Homo sapiens, UniProt P10635); test: biochemical; format: in vitro ADME
CYP2D6, sequence (P10635 whole entry): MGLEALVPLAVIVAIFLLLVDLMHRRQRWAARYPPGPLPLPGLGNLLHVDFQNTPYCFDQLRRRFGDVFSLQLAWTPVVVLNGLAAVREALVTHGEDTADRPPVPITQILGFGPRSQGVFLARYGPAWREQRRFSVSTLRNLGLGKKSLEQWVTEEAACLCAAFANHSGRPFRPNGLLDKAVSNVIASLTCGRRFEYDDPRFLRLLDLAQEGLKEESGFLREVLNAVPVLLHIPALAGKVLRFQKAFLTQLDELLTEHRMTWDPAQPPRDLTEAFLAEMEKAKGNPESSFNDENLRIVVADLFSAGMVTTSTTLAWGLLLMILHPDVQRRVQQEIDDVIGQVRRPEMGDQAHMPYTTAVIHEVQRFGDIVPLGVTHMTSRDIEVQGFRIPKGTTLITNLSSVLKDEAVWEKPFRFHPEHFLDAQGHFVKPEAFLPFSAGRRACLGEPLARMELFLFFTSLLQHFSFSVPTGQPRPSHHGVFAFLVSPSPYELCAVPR
Excerpt: as §1

[4] = molecular target: CYP3A4 (Homo sapiens, UniProt P08684); test: biochemical; format: in vitro ADME
CYP3A4, sequence (P08684 whole entry): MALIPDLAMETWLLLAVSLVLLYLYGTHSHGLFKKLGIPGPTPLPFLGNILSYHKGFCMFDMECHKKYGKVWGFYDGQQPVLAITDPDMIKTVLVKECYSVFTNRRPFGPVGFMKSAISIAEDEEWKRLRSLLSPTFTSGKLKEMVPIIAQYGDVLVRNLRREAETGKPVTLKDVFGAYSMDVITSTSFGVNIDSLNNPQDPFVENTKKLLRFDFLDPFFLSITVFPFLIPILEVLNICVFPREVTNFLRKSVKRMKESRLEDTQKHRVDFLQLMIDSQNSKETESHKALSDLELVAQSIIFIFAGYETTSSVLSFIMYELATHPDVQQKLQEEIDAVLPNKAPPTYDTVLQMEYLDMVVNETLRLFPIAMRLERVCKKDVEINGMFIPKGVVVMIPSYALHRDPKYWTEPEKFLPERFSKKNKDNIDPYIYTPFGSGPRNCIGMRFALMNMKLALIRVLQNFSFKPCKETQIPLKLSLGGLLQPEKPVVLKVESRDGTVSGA
Excerpt: as §1

[5] = molecular target: CYP2C9 (Homo sapiens, UniProt P11712); test: biochemical; format: in vitro ADME
CYP2C9, sequence (P11712 whole entry): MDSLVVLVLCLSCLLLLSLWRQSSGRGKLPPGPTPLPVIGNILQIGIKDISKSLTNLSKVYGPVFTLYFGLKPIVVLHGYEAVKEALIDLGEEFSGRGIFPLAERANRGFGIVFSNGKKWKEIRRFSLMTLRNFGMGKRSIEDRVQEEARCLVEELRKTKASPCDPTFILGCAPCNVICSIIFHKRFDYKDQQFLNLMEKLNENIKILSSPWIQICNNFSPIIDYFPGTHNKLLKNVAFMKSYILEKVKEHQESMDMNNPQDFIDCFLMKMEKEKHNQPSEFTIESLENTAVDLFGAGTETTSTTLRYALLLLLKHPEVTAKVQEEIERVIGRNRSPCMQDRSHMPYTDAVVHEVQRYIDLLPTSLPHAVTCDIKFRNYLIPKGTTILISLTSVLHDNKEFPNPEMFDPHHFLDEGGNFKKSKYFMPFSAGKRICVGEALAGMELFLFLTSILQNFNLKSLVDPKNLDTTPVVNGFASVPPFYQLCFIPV
Excerpt: as §1

[6] = molecular target: CYP1A2 (Homo sapiens, UniProt P05177); test: biochemical; format: in vitro ADME
CYP1A2, sequence (P05177 whole entry): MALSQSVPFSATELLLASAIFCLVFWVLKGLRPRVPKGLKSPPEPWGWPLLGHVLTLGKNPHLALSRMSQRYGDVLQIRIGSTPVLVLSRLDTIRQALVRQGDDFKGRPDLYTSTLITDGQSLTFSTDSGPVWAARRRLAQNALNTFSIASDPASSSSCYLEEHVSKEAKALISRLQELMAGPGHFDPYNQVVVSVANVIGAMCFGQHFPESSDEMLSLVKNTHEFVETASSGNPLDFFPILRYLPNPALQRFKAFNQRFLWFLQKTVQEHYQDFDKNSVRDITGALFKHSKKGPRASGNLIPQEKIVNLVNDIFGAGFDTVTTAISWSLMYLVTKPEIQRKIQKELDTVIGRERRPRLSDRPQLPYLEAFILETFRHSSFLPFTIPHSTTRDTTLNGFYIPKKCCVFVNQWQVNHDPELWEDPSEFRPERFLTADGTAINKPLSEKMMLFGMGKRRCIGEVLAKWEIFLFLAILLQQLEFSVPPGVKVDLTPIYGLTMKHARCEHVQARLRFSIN
Excerpt: as §1

[7] = in vitro; conditions: African green monkey
[8] = physchem; conditions: pH 7.4, aqueous buffer, kinetic from dmso stock
[9] = molecular target: KasA (Mycobacterium tuberculosis, UniProt P9WQD9); test: Microscale thermophoresis (MST) binding assay; conditions: 49.5 nM labeled KasA
KasA, sequence (P9WQD9 whole entry): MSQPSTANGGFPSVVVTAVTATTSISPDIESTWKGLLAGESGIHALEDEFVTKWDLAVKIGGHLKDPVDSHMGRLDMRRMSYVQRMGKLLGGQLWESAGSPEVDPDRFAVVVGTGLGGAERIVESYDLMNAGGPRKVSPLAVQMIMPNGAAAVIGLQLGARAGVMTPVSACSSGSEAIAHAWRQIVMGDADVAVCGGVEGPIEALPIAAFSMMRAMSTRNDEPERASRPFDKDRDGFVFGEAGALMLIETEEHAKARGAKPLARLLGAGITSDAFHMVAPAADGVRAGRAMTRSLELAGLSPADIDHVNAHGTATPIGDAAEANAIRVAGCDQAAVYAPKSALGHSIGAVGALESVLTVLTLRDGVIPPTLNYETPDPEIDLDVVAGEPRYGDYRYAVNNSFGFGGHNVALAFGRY

[10] = system: M. fortuitum; test: MIC, MABA; format: cell-based; conditions: Mycolicibacterium fortuitum; M. fortuitum ATCC wild type
[11] = molecular target: hERG (Homo sapiens, UniProt Q12809); test: hERG inhibition
hERG, sequence (Q12809 whole entry): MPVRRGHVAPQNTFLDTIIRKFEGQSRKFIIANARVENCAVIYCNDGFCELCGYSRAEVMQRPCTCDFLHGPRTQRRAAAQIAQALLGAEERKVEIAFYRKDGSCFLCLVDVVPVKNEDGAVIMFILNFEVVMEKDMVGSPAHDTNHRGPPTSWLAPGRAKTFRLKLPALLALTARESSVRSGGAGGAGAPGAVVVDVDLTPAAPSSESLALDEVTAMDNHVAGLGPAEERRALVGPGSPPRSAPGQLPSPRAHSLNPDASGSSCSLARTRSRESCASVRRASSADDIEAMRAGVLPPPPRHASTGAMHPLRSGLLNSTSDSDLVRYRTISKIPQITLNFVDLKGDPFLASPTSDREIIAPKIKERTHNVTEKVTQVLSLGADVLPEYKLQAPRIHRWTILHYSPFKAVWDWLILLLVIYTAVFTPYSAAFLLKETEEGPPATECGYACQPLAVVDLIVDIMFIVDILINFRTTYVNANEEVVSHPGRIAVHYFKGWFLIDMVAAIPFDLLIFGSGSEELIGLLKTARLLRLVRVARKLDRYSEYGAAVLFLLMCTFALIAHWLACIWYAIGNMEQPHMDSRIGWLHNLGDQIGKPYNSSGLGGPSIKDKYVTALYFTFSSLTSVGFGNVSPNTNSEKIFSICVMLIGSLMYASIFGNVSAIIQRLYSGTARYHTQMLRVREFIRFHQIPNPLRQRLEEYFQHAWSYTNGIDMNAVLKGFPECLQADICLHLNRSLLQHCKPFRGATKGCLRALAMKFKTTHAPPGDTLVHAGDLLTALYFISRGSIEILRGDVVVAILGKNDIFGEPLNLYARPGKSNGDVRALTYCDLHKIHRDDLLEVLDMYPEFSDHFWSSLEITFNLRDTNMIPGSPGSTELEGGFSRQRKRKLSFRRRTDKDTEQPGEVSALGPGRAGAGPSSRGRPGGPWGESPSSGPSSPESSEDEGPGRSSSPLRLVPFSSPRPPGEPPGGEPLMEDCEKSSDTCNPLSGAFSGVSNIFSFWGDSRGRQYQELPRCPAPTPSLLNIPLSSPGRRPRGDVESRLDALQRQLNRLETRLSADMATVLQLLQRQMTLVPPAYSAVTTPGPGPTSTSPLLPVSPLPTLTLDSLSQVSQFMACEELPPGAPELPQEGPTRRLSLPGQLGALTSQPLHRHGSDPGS

[12] = molecular target: CYP2C19 (Homo sapiens, UniProt P33261); test: Cytochrome P450 inhibition; format: in vitro ADME; conditions: read-out: Cytochrome P450 IC50, 2C19
CYP2C19, sequence (P33261 whole entry, species assumed): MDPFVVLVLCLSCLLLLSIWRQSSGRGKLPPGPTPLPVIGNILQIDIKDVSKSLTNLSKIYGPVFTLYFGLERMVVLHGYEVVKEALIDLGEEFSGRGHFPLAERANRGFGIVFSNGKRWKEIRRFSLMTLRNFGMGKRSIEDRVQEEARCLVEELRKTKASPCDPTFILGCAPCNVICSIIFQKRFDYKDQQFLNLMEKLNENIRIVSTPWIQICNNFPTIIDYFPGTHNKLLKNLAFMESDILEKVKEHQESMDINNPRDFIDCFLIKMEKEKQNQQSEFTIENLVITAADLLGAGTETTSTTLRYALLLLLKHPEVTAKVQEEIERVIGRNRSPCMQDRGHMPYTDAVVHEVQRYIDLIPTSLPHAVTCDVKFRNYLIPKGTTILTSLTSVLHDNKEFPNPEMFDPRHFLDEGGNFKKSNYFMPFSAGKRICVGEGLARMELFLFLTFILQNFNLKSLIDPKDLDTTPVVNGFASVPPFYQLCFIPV

[13] = in vitro; format: cell-based; conditions: mouse
Excerpt: as §1

[14] = system: M. smegmatis; test: MIC, MABA; format: cell-based; conditions: Mycolicibacterium smegmatis; M. smegmatis wild-type
[15] = in vitro; conditions: human
[16] = format: in vitro ADME
Excerpt: as §1

[17] = system: M. tuberculosis H37Rv gene expression; format: cell-based, Mycobacterium tuberculosis
[18] = system: M. abscessus; test: MIC, MABA; format: cell-based; conditions: Mycobacteroides abscessus; M. abscessus ATCC wild type
[19] = system: iniBAC promoter (PiniBAC); format: cell-based, M. bovis BCG
[20] = Chemical stability at pH 2, 7, 9; format: physicochemical; conditions: for half-life: buffer, read-out: Chemical stability t1/2
Excerpt: as §1

[21] = mouse, microsomes
[22] = system: M. avium; test: MIC, MABA; format: cell-based; conditions: Mycobacterium avium; M. avium ATCC wild type
[23] = system: M. marinum; test: MIC, MABA; format: cell-based; conditions: Mycobacterium marinum; M. marinum ATCC wild type
[24] = system: M. tuberculosis 100-day-old bacilli (persisters); format: cell-based, Mycobacterium tuberculosis
[25] = in vitro; conditions: mouse, microsomes
[26] = system: mycolic acid biosynthesis in M. tuberculosis H37Rv; format: cell-based, Mycobacterium tuberculosis

CCCCS(=O)(=O)Nc1ccc2cnn(C)c2c1 [DG167, N-(1-Methyl-1H-indazol-6-yl)butane-1-sulfonamide]
AUC(0-t) ([1]; mouse, in vivo, iv, 5 mg/kg): 1750 ng·h/mL | half-life ([1]; mouse, in vivo, iv, 5 mg/kg): 0.33 h | AUC(0-t) ([1]; mouse, in vivo, po, 25 mg/kg): 8080 ng·h/mL | bioavailability ([1]; plasma, po, 25 mg/kg): 92.3% | tolerability, dose escalation (mice, 50 and 100 mg/kg, monitored for 8 h): well tolerated | dose tolerability for 5 days (mice, 5 days, DG167 50 and 100 mg/kg, combination DG167 100 mg/kg with INH 25 mg/kg): did not show any behavioral changes or weight loss | tolerability, dose escalation (mouse, in vivo): heavy breathing, hunched posture, and decreased activity | recovery ([2]; human): 92% | fraction unbound ([2]; human): 0.081 | recovery ([2]; mouse): 90.7% | fraction unbound ([2]; mouse): 0.21 | IC50 [3]: > 50 µM | IC50 [4]: > 50 µM | IC50 [5]: > 50 µM | IC50 [6]: > 50 µM | CC50 [7]: 23 µM | solubility kinetic [8]: 324 µM (≈ 86.6 µg/mL) | EC50 [9]: 0.131 ± 0.0182 µM | MIC [10]: > 50 µM | IC50 [11]: > 20 µM | IC50 [12]: 12 µM and 12.4 µM | CC50 [13]: 94 µM | MIC [14]: > 50 µM | Papp ([15]; Caco-2, Caco-2 Permeability PA-B): 71.8 ×10⁻⁶ cm/s | Papp ([15]; Caco-2, Caco-2 Permeability PB-A): 45.6 ×10⁻⁶ cm/s | Human plasma stability at 5 h [16]: 109% | Mouse plasma stability @ 5 h [16]: 99.1% | expression of the kasA, kasB, and acpM genes and the iniBAC operon [17]: strongly induced expression | MIC [18]: > 50 µM | induction of iniBAC promoter [19]: approximately 12 fold | half-life ([20]; pH 2): 192 h | half-life ([20]; pH 9): 57.8 h | Chemical stability t1/2 ([20]; pH 7): Stable | MLM stability clint [21]: 68.9 μl/mi/mg protein | MLM-generated metabolites [21]: A demethylated species, corresponding to loss of the 1-methyl group (Fig. S5A), predominated among the metabolites | MIC [22]: > 50 µM | MIC [23]: > 50 µM | killing of persister cultures [24]: minimal killing | half-life [25]: 0.168 h | microsomal CLint [25]: 68.9 µL/min/mg | half-life ([25]; MLM stability t1/2 without NADPH, without NADPH): > 5 h | inhibition of mycolic acid biosynthesis [26]: dose-dependent inhibition
